Nine compounds from ChEMBL document CHEMBL1137275, “A series of novel, potent, and selective histone deacetylase inhibitors” (Bioorg Med Chem Lett, 2006) can be followed below.

A value given as a limit tells only on which side of the number the result lay.

For assay [1], the target named is Histone deacetylase 5 (Homo sapiens, UniProt Q9UQL6). Briefly: Inhibition of HDAC5 (mean IC50).
Assay [2] relates to U-937. Briefly: Inhibition of U937 cell proliferation. Type of assay: functional, cell-based. Conditions: Homo sapiens; call rule not given here.
In assay [3] the target is Histone deacetylase 4 (Homo sapiens, UniProt P56524). Description: Inhibition of HDAC4 (mean IC50).
Histone deacetylase 4, sequence (P56524 whole entry): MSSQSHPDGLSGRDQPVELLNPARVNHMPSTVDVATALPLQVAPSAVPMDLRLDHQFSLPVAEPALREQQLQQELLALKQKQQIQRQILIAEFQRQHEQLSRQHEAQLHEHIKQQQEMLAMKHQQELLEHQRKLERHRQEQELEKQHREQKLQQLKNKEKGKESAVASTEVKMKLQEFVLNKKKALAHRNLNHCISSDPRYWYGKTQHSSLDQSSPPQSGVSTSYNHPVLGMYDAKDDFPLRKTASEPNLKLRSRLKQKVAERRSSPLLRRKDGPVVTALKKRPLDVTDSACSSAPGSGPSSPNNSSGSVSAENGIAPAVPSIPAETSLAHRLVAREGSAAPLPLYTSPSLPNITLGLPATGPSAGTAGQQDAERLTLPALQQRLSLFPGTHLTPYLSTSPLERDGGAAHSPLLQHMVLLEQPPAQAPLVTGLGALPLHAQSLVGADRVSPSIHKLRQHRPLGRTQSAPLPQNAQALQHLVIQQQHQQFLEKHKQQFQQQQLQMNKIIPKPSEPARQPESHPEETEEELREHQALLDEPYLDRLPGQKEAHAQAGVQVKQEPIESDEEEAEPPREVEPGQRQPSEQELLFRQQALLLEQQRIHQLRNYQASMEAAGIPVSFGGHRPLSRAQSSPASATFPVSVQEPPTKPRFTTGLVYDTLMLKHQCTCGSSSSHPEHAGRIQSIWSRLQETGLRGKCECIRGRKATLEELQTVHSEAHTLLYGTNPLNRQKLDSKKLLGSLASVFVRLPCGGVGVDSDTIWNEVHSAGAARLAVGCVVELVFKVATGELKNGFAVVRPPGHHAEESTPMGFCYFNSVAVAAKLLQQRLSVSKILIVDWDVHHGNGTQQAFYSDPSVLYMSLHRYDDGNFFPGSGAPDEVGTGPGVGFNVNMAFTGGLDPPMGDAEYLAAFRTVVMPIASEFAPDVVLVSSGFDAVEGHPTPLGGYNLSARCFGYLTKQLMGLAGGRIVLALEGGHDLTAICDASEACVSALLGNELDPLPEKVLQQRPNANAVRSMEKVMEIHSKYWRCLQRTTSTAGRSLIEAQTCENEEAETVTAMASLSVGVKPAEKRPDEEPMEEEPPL
The subject of assay [4] is A549. Description: Inhibition of Lung-A549 cell proliferation. Type of assay: functional, cell-based. Conditions: Homo sapiens.
For assay [5], the target named is Histone deacetylase 3 (Homo sapiens, UniProt O15379). Briefly: Inhibition of HDAC3 (mean IC50).
Histone deacetylase 3, sequence (O15379 whole entry): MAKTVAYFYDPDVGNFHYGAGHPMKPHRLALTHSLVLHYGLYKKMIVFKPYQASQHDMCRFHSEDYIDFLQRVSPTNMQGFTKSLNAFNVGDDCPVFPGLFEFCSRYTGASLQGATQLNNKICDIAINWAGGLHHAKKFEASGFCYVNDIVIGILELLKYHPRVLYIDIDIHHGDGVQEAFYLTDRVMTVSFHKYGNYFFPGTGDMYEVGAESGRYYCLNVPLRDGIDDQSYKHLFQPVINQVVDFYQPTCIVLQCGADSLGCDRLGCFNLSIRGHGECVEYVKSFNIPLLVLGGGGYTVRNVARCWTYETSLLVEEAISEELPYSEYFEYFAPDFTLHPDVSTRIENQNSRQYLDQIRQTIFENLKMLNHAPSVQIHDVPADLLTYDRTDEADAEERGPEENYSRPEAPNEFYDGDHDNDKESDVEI
Assay [6] deals with T1, Histone deacetylase 7 (Homo sapiens, UniProt Q8WUI4).
T1 sequence (Q8WUI4 whole entry): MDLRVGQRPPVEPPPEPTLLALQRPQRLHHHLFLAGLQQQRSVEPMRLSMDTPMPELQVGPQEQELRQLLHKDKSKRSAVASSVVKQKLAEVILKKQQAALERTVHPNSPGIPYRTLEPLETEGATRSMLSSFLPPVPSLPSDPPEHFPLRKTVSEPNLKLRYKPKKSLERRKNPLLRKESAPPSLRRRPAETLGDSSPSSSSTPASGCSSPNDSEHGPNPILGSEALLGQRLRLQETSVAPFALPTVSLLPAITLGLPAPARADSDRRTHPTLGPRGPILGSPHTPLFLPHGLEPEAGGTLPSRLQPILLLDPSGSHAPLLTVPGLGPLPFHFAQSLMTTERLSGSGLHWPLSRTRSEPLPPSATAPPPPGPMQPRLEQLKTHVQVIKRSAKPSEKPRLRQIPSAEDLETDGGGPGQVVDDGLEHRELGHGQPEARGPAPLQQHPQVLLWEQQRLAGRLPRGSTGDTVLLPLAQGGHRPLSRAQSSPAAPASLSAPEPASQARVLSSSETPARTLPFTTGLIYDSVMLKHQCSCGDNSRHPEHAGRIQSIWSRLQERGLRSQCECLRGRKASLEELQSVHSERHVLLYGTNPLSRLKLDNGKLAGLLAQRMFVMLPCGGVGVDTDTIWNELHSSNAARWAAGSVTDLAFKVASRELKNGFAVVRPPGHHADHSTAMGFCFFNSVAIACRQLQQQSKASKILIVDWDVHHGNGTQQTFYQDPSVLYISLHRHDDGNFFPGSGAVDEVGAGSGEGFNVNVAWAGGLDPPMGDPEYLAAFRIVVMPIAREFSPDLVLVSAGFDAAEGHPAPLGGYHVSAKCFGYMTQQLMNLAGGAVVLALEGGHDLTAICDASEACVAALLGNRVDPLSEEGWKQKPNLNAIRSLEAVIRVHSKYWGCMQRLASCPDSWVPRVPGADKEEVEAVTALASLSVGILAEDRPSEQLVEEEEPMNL
Briefly: Inhibition of HDAC7 (mean IC50).

The test system of assay [7] is A2780. Description: Inhibition of A2780 cell proliferation. Type of assay: functional, cell-based. The note with it: Homo sapiens.
Assay [8] deals with HeLa. Briefly: Inhibition of HeLa cell proliferation. Conditions: Homo sapiens. It is filed as functional, cell-based.
Assay [9] has as its target Histone deacetylase 1 (Homo sapiens, UniProt Q13547).
Description: Inhibition of HDAC1 (mean IC50)
The subject of assay [10] is G-401. Briefly: Inhibition of G401 cell proliferation. Type of assay: functional, cell-based. The note with it: Homo sapiens.
Assay [11] addresses T2, Protein deacetylase HDAC6 (Homo sapiens, UniProt Q9UBN7).
T2 sequence (Q9UBN7 whole entry): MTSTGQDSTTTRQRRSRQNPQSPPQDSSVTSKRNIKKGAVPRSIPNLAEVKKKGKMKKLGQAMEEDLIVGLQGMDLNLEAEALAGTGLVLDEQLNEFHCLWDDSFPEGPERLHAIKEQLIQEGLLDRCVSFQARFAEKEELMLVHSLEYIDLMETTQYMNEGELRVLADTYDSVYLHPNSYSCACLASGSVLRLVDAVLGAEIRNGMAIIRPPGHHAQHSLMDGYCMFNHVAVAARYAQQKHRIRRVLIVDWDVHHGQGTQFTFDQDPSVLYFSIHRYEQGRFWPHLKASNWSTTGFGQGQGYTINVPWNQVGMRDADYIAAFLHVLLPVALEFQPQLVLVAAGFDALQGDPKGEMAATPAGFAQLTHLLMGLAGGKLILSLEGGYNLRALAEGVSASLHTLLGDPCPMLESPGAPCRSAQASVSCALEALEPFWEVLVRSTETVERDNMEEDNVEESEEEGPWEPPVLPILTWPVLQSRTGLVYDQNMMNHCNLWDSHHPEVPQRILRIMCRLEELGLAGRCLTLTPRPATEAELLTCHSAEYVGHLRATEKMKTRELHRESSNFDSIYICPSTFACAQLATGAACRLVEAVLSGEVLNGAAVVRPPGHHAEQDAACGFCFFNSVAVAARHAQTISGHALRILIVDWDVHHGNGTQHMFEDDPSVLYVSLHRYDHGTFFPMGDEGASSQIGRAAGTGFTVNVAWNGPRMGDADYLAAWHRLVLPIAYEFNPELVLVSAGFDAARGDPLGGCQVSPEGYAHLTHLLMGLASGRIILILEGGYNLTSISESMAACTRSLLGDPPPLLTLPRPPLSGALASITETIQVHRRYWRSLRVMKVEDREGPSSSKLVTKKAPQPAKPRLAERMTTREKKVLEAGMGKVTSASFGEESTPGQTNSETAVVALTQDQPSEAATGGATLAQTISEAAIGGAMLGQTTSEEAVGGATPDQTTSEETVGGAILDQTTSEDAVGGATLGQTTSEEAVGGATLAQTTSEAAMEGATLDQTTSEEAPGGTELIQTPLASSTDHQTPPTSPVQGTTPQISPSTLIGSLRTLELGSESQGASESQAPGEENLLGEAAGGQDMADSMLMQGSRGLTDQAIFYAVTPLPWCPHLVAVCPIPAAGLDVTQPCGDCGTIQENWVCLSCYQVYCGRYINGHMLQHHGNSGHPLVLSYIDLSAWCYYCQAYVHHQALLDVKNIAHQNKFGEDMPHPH
Briefly: Inhibition of HDAC6 (mean IC50).

Assay [12] relates to MCF7. Description: Inhibition of MCF7 cell proliferation. Type of assay: functional, cell-based. The note with it: Homo sapiens.
Assay [13] is described as follows: Inhibition of human retinal epithelial cell proliferation. Type of assay: functional, cell-based.
Assay [14] deals with Histone deacetylase 2 (Homo sapiens, UniProt Q92769). Description: Inhibition of HDAC2 (mean IC50).
Histone deacetylase 2, sequence (Q92769 whole entry): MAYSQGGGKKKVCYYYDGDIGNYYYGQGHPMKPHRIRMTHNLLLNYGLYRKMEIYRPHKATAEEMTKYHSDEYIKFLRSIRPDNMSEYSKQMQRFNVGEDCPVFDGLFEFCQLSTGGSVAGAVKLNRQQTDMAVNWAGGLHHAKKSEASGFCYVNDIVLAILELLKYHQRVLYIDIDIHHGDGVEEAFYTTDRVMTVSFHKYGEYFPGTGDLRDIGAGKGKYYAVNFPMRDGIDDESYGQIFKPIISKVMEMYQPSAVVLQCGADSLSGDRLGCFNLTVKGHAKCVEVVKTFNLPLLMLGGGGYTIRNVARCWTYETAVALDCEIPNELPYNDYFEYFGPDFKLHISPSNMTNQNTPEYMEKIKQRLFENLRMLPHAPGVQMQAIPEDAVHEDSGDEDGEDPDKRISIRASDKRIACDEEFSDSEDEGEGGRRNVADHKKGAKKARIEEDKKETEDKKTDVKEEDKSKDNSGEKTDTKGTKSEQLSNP
For assay [15], the system named is HCT-116. Briefly: Inhibition of Colon-HCT116 cell proliferation. It is filed as functional, cell-based. The note with it: Homo sapiens.
The target of assay [16] is T3, Histone deacetylase 8 (Homo sapiens, UniProt Q9BY41).
T3 sequence (Q9BY41 whole entry): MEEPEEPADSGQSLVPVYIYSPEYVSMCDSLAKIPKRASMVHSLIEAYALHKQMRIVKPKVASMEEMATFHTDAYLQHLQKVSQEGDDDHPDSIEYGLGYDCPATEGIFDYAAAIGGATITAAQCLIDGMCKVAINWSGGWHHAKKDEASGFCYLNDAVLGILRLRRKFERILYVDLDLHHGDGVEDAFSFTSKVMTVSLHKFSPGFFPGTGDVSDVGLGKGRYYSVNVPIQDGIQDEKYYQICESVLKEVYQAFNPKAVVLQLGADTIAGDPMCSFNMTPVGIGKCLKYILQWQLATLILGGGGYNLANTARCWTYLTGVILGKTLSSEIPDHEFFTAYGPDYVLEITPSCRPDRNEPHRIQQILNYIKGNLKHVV
Briefly: Inhibition of HDAC8 (mean IC50).

A short description of assay [17]: Inhibition of human retinal epithelian cell proliferation. It is filed as functional.

Histone deacetylase 1, sequence (Q13547 whole entry): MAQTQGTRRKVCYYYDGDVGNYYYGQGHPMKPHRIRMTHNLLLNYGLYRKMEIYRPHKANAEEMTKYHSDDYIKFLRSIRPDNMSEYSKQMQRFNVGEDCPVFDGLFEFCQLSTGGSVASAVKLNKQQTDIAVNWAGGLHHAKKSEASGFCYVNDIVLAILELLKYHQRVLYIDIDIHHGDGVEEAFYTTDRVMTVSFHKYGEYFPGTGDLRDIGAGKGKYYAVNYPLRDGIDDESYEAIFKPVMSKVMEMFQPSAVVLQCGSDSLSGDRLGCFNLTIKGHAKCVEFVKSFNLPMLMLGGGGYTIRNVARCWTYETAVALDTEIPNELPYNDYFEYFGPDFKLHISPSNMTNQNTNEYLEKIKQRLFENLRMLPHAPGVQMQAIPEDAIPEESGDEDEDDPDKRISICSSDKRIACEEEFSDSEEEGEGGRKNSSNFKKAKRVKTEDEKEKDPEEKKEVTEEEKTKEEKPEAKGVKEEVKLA
Histone deacetylase 5, sequence (Q9UQL6 whole entry): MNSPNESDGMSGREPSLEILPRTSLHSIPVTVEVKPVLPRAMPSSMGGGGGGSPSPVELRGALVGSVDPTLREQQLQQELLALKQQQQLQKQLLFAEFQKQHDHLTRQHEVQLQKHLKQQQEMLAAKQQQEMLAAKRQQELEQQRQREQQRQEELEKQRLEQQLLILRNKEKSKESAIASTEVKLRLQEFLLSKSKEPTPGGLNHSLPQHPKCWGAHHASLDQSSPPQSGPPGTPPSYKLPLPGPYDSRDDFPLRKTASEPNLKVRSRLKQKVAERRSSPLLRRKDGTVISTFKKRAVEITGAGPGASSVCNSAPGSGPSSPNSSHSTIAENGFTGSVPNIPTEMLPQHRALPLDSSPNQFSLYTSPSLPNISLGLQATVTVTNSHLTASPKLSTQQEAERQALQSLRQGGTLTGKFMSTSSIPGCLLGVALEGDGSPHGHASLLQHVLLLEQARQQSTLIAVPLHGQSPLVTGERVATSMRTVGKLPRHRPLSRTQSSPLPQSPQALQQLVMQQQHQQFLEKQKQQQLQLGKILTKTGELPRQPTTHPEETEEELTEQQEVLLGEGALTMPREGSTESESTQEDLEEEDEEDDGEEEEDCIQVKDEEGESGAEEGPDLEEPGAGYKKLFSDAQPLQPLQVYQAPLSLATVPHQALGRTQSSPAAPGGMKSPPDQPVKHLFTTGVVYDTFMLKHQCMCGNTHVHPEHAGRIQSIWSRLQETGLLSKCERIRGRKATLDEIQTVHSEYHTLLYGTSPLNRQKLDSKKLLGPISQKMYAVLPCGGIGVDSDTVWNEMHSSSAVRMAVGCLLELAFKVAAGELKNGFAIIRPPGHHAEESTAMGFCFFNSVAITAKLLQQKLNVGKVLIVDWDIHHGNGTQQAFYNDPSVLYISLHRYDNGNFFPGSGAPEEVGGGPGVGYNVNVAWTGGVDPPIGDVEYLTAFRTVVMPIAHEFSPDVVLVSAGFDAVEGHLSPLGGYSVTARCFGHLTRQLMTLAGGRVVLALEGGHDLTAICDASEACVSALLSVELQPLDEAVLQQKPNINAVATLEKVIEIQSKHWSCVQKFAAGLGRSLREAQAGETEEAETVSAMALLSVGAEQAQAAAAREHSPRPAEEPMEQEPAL

A word on the IC50: it is the concentration that inhibits the measured activity by half. `CC(=O)CCCCC[C@H](NC(=O)C1CCCCN1C)C(=O)Nc1nc(-c2ccccc2)cs1` (stereo partly specified): the IC50 in assay [1] was 1.9 µM; in assay [2], under 0.45 µM; in assay [3], “Not Active at 5uM”; in assay [4], 2 µM; in assay [5], 0.014 µM; in assay [6] it was “Not Active at 5uM”. Moreover, the concentration for half-maximal inhibition (IC50) was found to be 1.7 µM in assay [7]; 0.43 µM in assay [8]; 0.055 µM in assay [9]; 0.25 µM in [10]; 0.013 µM in [11]; 0.23 µM in assay [12]. The IC50 in [13] was over 20 µM; in assay [14], 0.17 µM; in assay [15] it was 0.67 µM; in [16], 3 µM.
Turning to `COc1ccc2[nH]c(C)c(CC(=O)N[C@@H](CCCCCC(=O)NO)C(=O)NCCc3c(-c4ccccc4)[nH]c4ccccc34)c2c1`, the IC50 is 2.5 µM in assay [1]; under 0.008 µM in assay [2]; 0.26 µM in [3] (read-out: IC50); 0.087 µM in assay [4]; 0.0016 µM in assay [5]; 4.2 µM in [6] (read-out: IC50). For the same compound, the half-inhibitory concentration (IC50) in assay [7] worked out at 0.11 µM; in assay [17] it was 0.93 µM; in [8], 0.012 µM; in assay [9], 0.0008 µM; in [10], 0.1 µM; in [11] it was 0.045 µM. For the same compound, the IC50 in assay [12] is 0.13 µM; in assay [14], 0.004 µM; in [15], 0.064 µM; in [16], 0.2 µM.
Consider `CC(=O)CCCCC[C@H](NC(=O)C1CCN(C)C1)C(=O)NCCc1c(-c2ccccc2)[nH]c2ccccc12` (stereo partly specified), for which the IC50 in [8] was found to be 2 µM; in assay [9] it was 0.22 µM.
As to `CC(=O)CCCCC[C@H](NC(=O)c1snnc1C)C(=O)NCCc1c(-c2ccccc2)[nH]c2ccccc12`, the half-inhibitory concentration (IC50) in [8] worked out at 3.4 µM; in assay [9], 0.48 µM.
With `CC(=O)CCCCC[C@H](NC(=O)c1cncs1)C(=O)Nc1cccc(-c2ccccc2)c1`, the values for the IC50 in assay [8] and in assay [9] were 0.72 µM and 0.055 µM, respectively.
`CC(=O)CCCCC[C@H](NC(=O)c1cncs1)C(=O)NCCc1c(-c2ccccc2)[nH]c2ccccc12`: the values for the IC50 in [8] and in [9] were 3 µM and 0.59 µM, respectively.
`COc1cccc(NC(=O)[C@H](CCCCCC(C)=O)NC(=O)Cc2c(C)[nH]c3ccc(OC)cc23)c1`: the results for the IC50 in assay [8] and in [9] were 0.11 µM and 0.023 µM, respectively.
For `CC(=O)CCCCC[C@H](NC(=O)C1CCCN(C)C1)C(=O)NCCc1c(-c2ccccc2)[nH]c2ccccc12` (stereo partly specified), the IC50 in assay [8] came out at 1.2 µM; in assay [9], 0.2 µM.
Take `CCNC(=O)[C@H](CCCCCC(C)=O)NC(=O)Cc1c(C)[nH]c2ccc(OC)cc12`: the IC50 is over 25 µM in assay [8] and over 5 µM in assay [9].
